# Source: article PMC12636036, “Precise Detection of Surgical Margin in Head and Neck Cancer Using Dual Near-Infrared Imaging of the Tumor and Tumor Microenvironment” (Biomaterials Research, 2025)
# Columns and labels:
# FaDu cells [1] = experiment: Cellular uptake inhibition assay; format: cell-based; details: n = 6
# Description: To reveal the uptake mechanism of OCTL14 on FaDu cells, a cellular uptake inhibition assay was performed using bromsulphthalein (BSP) (Sigma-Aldrich, St. Louis, MO, USA) and corticosteroid (Sigma-Aldrich). First, the 15,000 cells were plated per well on a 24-well plate. After incubation for 48 h at 37 °C, cells were washed twice with 0.5 ml of HBSS. Then, the cells were pretreated with 250 μM BSP for 5 min or 25 μM corticosteroid for 5 min, before they were incubated with 2 μM OCTL14 for 15 min at 37 °C. To rule out the possible diffusion of OCTL14 across the plasma membrane, FaDu cells were incubated with 2 μM OCTL14 at 4 °C for 15 min. Serum-free medium was added to the control group without any inhibitors. After washing, images were acquired by Cytation 5 using a Cy5 filter. ImageJ software version 1.52p was used to measure the fluorescent intensity of FaDu cells at each condition.
# [2] = system: FaDu tongue cancer xenograft; experiment: Intraoperative fluorescence imaging of orthotopic and ectopic FaDu tumors (TBR, histology); format: in vivo, mice; details: for Tumor-to-background ratio (TBR): FaDu tongue cancer xenograft, intravenous, within 4 h post-injection, OCTL14 cancerous tissue, cRGD-ZW800-PEG surrounding TME; for Localisation by histopathologic analysis: orthotopic FaDu tongue tumor, 4 h after intravenous injection, frozen sections, NIR and H&E
# Description: To evaluate the targetability of OCTL14 and cRGD-ZW800-PEG on the orthotopic xenograft model of tongue cancer, 0.5 × 10^6 of FaDu cells in a 30-μl mixture of saline and Matrigel (1:2 ratio) were injected subepithelially into the tip of the tongue using an insulin syringe. When the size of the tongue tumor reached 2 mm, dual fluorescence imaging was performed by injecting cRGD-ZW800-PEG and OCTL14 intravenously 4 h prior to imaging. For the ectopic xenograft model of HNSCC, 0.5 × 10^6 of FaDu cells in a 50-μl mixture of saline and Matrigel (1:2 ratio) were injected subcutaneously on the lower back of the mouse. When the size of the ectopic tumor reached 3 mm, in vivo evaluation of the targetability of the 2 NIR fluorophores was performed. All the animal surgeries were performed under anesthesia with isoflurane.
# The real-time fluorescence intensity of OCTL14 and cRGD-ZW800-PEG at the orthotopic and ectopic tumors was compared with the surrounding nontumor region (background signal) to evaluate the TBR. After intraoperative imaging, the fluorescence intensity of the tumor tissue was acquired using ImageJ software and divided by the fluorescence intensity of the surrounding tissue to calculate TBR for both OCTL14 and cRGD-ZW800-PEG. Quantitative time-course assessment of both orthotopic and ectopic tongue cancer was performed for both OCTL14 and cRGD-ZW800-PEG at 1, 4, 6, and 24 h post-intravenous injection. At least 3 head and neck tumor models were evaluated for the quantitative analysis of TBR.
# Tumor and TME targetability of OCTL14 and cRGD-ZW800-PEG were confirmed by histology analysis on the orthotopic HNSCC xenograft model. The tumor-bearing tongue was excised from the mouse after in vivo imaging of the tumors at 4 h after intravenous injection of the 2 fluorophores, and embedded in Tissue-Tek optimal cutting temperature compound (Sakura Finetek, Torrance, CA, USA). Frozen sections were acquired and placed on slides with a cut thickness of 10 μm using a cryostat (Leica, Germany). Fluorescence images were taken for both OCTL14 and cRGD-ZW800-PEG using Cy5 filter and Cy7 filter on Cytation 5, respectively. After dual fluorescence imaging, the tissue sections were stained with hematoxylin and eosin (H&E), and bright-field images of the orthotopic tongue cancer were acquired using Cytation 5.
# FaDu cells [3] = experiment: Cell viability assay (CCK-8); format: cell-based; details: FaDu cells
# Description: (§1) To evaluate the toxicity of OCTL14 and cRGD-ZW800-PEG on FaDu cells, cell viability was measured by using the Cell Counting Kit-8 (CCK-8, Dojindo Molecular Technologies Inc., Kumamoto, Japan). FaDu cells were seeded at a density of 400 cells/well in a 96-well plate, and then they were then treated with either 2, 5, 10, and 20 μM OCTL14 or 1.6, 3.1, 6.3, 12.5, 25, 50, and 100 μM cRGD-ZW800-PEG in growth medium for 24 h at 37 °C. Then, the dye and old medium were removed from all wells, and new medium were added and incubated for 24 h before 10 μl of CCK-8 solution was added to each well. After 3 h of incubation for OCTL14 and 4 h of incubation for cRGD-ZW800-PEG, absorbance was measured at 450 nm using a microplate reader. The cell survival rate for each dye was calculated using the following equation: Survival rate (%) = (Asample − Ab)/(Ac − Ab) × 100 (Asample, absorbance of sample; Ab, absorbance of blank well; Ac, absorbance of negative control). Experiments were repeated at least 3 times.
# [4] = Serum protein binding assay, rapid equilibrium dialysis; details: rapid equilibrium dialysis device; 5 μM; 10% fetal bovine serum; 8 h incubation; absorbance read-out of sample and buffer chamber (Cytation 5)
# [5] = Photostability under NIR irradiation; details: under 630-nm NIR light; 25 μM in 10% FBS; up to 3 h
# FaDu cells [6] = experiment: Cell binding assay; format: cell-based; details: OCTL14 20 min, cRGD-ZW800-PEG 30 min, Cy5 / Cy7 fluorescence imaging, n = 6
# Description: To evaluate the cellular uptake of OCTL14 and cRGD-ZW800-PEG in HNSCC cells, a cell binding assay was done using FaDu cells (HTB-43), purchased from the American Type Culture Collection (Manassas, VA, USA). The cells were first cultured in complete Dulbecco’s modified Eagle’s medium (cDMEM) supplemented with 4.5 g/l glucose, L-glutamine and sodium pyruvate, 10% FBS, and 1% penicillin/streptomycin (Lonza, DE17-602E) at 37 °C in a 5% CO2 humidified chamber. Then, cells were seeded in a 24-well plate at a density of 20,000 cells/well and incubated for 24 h. After discarding old medium and washing twice with Hanks’ balanced salt solution (HBSS), the cells were incubated with OCTL14 for 20 min and with cRGD-ZW800-PEG for 30 min, respectively. The wells were washed 3 times with HBSS before fluorescence images were captured using Cy5 and Cy7 filters on Cytation 5 for OCTL14 and cRGD-ZW800-PEG, respectively.
# [7] = Biodistribution and clearance, K-FLARE NIR imaging; details: tumor-bearing nude mice; 100 nmol intravenous; 4 h post-injection; SBR relative to muscle
# [8] = Cell viability assay (CCK-8); format: cell-based
# Description: as §1
# [9] = not given; remark: listed apart in the source
# [10] = not given; remark: listed apart in the source
"Plasma protein binding, 8 h (%Bound) [4] [%]",Photostability: remaining initial absorbance [5],SMILES,Uptake in cold inhibition test (FaDu cells [1]; 2 μM OCTL14 at 4 °C),"Effect of corticosteroid (OCT inhibitor) on uptake of OCTL14 (FaDu cells [1]; 25 μM corticosteroid pretreatment 5 min, 2 μM OCTL14, 15 min, 37 °C, compared to control)","Effect of BSP (OATP inhibitor) on uptake of OCTL14 (FaDu cells [1]; 250 μM BSP pretreatment 5 min, 2 μM OCTL14, 15 min, 37 °C)",Tumor-to-background ratio (TBR) [2],Localisation by histopathologic analysis [2],"IC50 (FaDu cells [3]; 24 h treatment at 37 °C, then 24 h in new medium, absorbance 450 nm, n = 5, read-out: IC50 (cytotoxicity, CCK-8)) [µM]","Concentration up to which little toxicity was shown (FaDu cells [3]; CCK-8 assay, 24 h treatment) [µM]",Uptake in FaDu cells (cell binding assay) (FaDu cells [6]),Biodistribution (SBR of resected organs) [7],IC50 [8] [µM],quantum yield (QY) [%],absorbance maximum [9] [nm],fluorescence maximum [10] [nm]
4.46,over 90%,Br.C[N+]1=C(/C=C2\C(=O)C(/C=C3/N(CCC[N+](C)(C)C)c4ccc(F)cc4C3(C)C)=C2[O-])C(C)(C)c2ccccc21.[I-] [OCTL14],Negative uptake,significantly reduced the uptake,little impact,> 2.0,effectively imaged the tumor cell itself,42.1,≤ 20,significantly high target affinity,"high SBR in the kidney, gallbladder, and intestine",,,,
,,CC1(C)C(=CC=C2CCCC(C=CC3=[N+](CCC[N+](C)(C)C)c4ccc(S(=O)(=O)O)cc4C3(C)C)=C2SCCOCCOCCC(=O)NCCCC[C@@H]2NC(=O)[C@@H](Cc3ccc(O)cc3)NC(=O)[C@H](CC(=O)O)NC(=O)CNC(=O)[C@H](CCCNC(=N)N)NC2=O)N(CCC[N+](C)(C)C)c2ccc(S(=O)(=O)O)cc21 [cRGD-ZW800-PEG],,,,> 1.5,peritumoral tissue was the primary target,,,limited uptake,,45.8,8.52,784,809
